{"source": "paper PMC11108860", "about": "(Heliyon, 2024)", "key": {"K562 cells [1]": {"test_system": "K562 cells", "assay": "Western blotting of proliferation- and apoptosis-related proteins in K562 cells", "assay_type": "cell-based, human", "settings": "for cleaved caspase-3 after inhibitor treatment: Fig. 6B,D, similar to EGCG treatment"}, "OR2AT4": {"biological_target": "T1, OR2AT4 (Homo sapiens, UniProt A6NND4)", "T1 sequence (A6NND4 1-320)": "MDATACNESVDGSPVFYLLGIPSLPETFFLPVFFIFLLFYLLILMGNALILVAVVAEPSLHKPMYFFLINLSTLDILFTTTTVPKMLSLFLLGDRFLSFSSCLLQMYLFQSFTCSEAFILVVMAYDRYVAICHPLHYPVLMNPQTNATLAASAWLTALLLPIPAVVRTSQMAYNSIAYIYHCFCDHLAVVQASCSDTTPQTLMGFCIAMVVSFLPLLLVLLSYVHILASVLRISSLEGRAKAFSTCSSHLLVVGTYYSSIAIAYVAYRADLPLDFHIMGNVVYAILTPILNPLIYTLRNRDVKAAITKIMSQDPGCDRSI", "assay": "Calcium imaging", "assay_type": "cell-based", "settings": "0 to 1 mM; OR2AT4-expressing cells"}, "K562 cells [2]": {"test_system": "K562 cells", "assay": "Calcium imaging", "assay_type": "cell-based, human"}, "Molt-4 cells [3]": {"test_system": "Molt-4 cells", "assay": "Calcium imaging", "assay_type": "cell-based"}, "OR2AT4-6xHis protein": {"biological_target": "T2, OR2AT4-6xHis protein (Homo sapiens, UniProt A6NND4)", "T2 sequence (A6NND4 1-320)": "T1 sequence (A6NND4 1-320)", "assay": "SPR sensorgrams on immobilized OR2AT4-6xHis, concentration series", "assay_type": "binding", "settings": "100 μM (Fig. 2A)"}, "K562 cells [4]": {"test_system": "K562 cells", "assay": "Cell viability assay", "assay_type": "cell-based, human", "settings": "for cell viability: K562; for IC50: Homo sapiens, read-out: IC50 (cell viability)"}, "Molt-4 cells [5]": {"test_system": "Molt-4 cells", "assay": "Cell viability assay", "assay_type": "cell-based", "settings": "24, 48, and 72 h"}, "K562 cells [6]": {"test_system": "K562 cells", "assay": "Apoptosis assay", "assay_type": "cell-based, human", "settings": "for percentage of total apoptotic cells: 200 μM"}, "[7]": {"settings": "K562, EGCG 200 μM, 30 min after treatment"}, "[8]": {"settings": "OR2AT4 siRNA-transfected K562 cells, EGCG treatment"}}, "note": "Where two headings read alike, the source gives them in different places."}
{"smiles": "CCCCCCCCCCCCCCCCCCOP(=O)([O-])OC1CC[N+](C)(C)CC1", "note": "[Perifosine, reference compound]", "values": [{"measurement": "p-Akt", "setting": "K562 cells [1]; K562, Fig. 6A", "result": "downregulation"}, {"measurement": "cleaved caspase-3 after inhibitor treatment", "setting": "K562 cells [1]; K562", "result": "upregulation"}]}
{"smiles": "C[S+]([O-])c1ccc(-c2nc(-c3ccncc3)c(-c3ccc(F)cc3)[nH]2)cc1", "note": "(stereo not drawn) [SB203580, reference compound]", "values": [{"measurement": "cleaved caspase-3 after inhibitor treatment", "setting": "K562 cells [1]; K562", "result": "upregulation"}, {"measurement": "p-p38 MAPK", "setting": "K562 cells [1]; K562, Fig. 6C", "result": "downregulation"}]}
{"smiles": "COc1cc2c3cc1Oc1c(OC)c(OC)cc4c1[C@@H](Cc1ccc(O)c(c1)Oc1ccc(cc1)C[C@@H]3N(C)CC2)N(C)CC4", "note": "[Berbamine]", "values": [{"measurement": "intracellular calcium response, dose-response", "setting": "OR2AT4", "result": "increased intracellular calcium levels in a concentration-dependent manner"}]}
{"smiles": "CC1=CCC(CCC(C)C(C)O)C1(C)C", "note": "(stereo not drawn) [Sandalore, reference compound]", "values": [{"measurement": "intracellular calcium response, dose-response", "setting": "OR2AT4", "result": "increased calcium response in a concentration-dependent manner"}, {"measurement": "intracellular calcium response in K562 cells", "setting": "K562 cells [2]; 2 mM", "result": "increased intracellular Ca^2+ levels"}, {"measurement": "intracellular calcium response in Molt-4 cells", "setting": "Molt-4 cells [3]; 2 mM", "result": "no immediate calcium response"}, {"measurement": "reactivity with OR2AT4 recombinant protein (SPR)", "setting": "OR2AT4-6xHis protein", "result": "confirming the reactivity"}, {"measurement": "cell viability", "setting": "K562 cells [4]; Fig. S2", "result": "decreased cell viability in a concentration-dependent manner"}]}
{"smiles": "O=C(O[C@@H]1Cc2c(O)cc(O)cc2O[C@@H]1c1cc(O)c(O)c(O)c1)c1cc(O)c(O)c(O)c1", "note": "[EGCG, (−)-epigallocatechin gallate]", "values": [{"measurement": "concentrations with sudden onset of cell death", "setting": "Molt-4 cells [5]", "result": "above 100 μM"}, {"measurement": "percentage of late apoptotic cells, time course", "setting": "K562 cells [6]; 200 μM, 24, 48, and 72 h", "result": "increased the percentage of late apoptotic cells in a time-dependent manner"}, {"measurement": "percentage of total apoptotic cells", "setting": "K562 cells [6]; 24 h", "result": 50, "unit": "%"}, {"measurement": "percentage of total apoptotic cells", "setting": "K562 cells [6]; 48 h", "result": 58.03, "unit": "%"}, {"measurement": "percentage of total apoptotic cells", "setting": "K562 cells [6]; 72 h", "result": 64.52, "unit": "%"}, {"measurement": "intracellular calcium response, dose-response", "setting": "OR2AT4", "result": "increased intracellular calcium levels in a concentration-dependent manner"}, {"measurement": "intracellular calcium response in K562 cells", "setting": "K562 cells [2]; 0.2 mM", "result": "elevated the calcium response"}, {"measurement": "expression of Bax", "setting": "K562 cells [1]; K562", "result": "no significant difference"}, {"measurement": "expression of Bcl-2", "setting": "K562 cells [1]; K562", "result": "no significant difference"}, {"measurement": "levels of cleaved caspase-3, time course", "setting": "K562 cells [1]; K562, 200 μM, 24 and 48 h", "result": "increased in a time-dependent manner"}, {"measurement": "protein level of phosphor-AKT", "setting": "K562 cells [1]; [7]", "result": "downregulated"}, {"measurement": "protein level of phosphor-p38 MARK", "setting": "K562 cells [1]; [7]", "result": "downregulated"}, {"measurement": "expression of phosphor-STAT5", "setting": "K562 cells [1]; K562, EGCG 200 μM, starting from 15 min", "result": "began to decrease"}, {"measurement": "expression levels of cleaved caspase-8", "setting": "K562 cells [1]; K562, time- and concentration-dependent", "result": "upregulated"}, {"measurement": "caspase-8 in OR2AT4 siRNA-transfected K562 cells", "setting": "K562 cells [1]; [8]", "result": "significantly reduced"}, {"measurement": "cleaved caspase-3 in OR2AT4 siRNA-transfected K562 cells", "setting": "K562 cells [1]; [8]", "result": "significantly reduced"}, {"measurement": "intracellular calcium response in Molt-4 cells", "setting": "Molt-4 cells [3]; 200 μM", "result": "no immediate calcium response"}, {"measurement": "IC50", "setting": "K562 cells [4]; K562, 48 h", "result": 146, "unit": "µM"}, {"measurement": "IC50", "setting": "K562 cells [4]; K562, 72 h", "result": 158, "unit": "µM"}, {"measurement": "cell viability", "setting": "K562 cells [4]; 24, 48, and 72 h, 0-500 μM", "result": "decreased cell viability in a time- (24, 48, and 72 h) and concentration-dependent manner"}]}
